The target in the data set is Multidrug resistance-associated protein 1 (Homo sapiens, UniProt P33527). The experiment in a line: TP_TRANSPORTER: inhibition of BODIPY-ivermectin transport in HL60-MRP1 cells. It is filed as functional, cell-based.
Sequence of Multidrug resistance-associated protein 1 (P33527 whole entry): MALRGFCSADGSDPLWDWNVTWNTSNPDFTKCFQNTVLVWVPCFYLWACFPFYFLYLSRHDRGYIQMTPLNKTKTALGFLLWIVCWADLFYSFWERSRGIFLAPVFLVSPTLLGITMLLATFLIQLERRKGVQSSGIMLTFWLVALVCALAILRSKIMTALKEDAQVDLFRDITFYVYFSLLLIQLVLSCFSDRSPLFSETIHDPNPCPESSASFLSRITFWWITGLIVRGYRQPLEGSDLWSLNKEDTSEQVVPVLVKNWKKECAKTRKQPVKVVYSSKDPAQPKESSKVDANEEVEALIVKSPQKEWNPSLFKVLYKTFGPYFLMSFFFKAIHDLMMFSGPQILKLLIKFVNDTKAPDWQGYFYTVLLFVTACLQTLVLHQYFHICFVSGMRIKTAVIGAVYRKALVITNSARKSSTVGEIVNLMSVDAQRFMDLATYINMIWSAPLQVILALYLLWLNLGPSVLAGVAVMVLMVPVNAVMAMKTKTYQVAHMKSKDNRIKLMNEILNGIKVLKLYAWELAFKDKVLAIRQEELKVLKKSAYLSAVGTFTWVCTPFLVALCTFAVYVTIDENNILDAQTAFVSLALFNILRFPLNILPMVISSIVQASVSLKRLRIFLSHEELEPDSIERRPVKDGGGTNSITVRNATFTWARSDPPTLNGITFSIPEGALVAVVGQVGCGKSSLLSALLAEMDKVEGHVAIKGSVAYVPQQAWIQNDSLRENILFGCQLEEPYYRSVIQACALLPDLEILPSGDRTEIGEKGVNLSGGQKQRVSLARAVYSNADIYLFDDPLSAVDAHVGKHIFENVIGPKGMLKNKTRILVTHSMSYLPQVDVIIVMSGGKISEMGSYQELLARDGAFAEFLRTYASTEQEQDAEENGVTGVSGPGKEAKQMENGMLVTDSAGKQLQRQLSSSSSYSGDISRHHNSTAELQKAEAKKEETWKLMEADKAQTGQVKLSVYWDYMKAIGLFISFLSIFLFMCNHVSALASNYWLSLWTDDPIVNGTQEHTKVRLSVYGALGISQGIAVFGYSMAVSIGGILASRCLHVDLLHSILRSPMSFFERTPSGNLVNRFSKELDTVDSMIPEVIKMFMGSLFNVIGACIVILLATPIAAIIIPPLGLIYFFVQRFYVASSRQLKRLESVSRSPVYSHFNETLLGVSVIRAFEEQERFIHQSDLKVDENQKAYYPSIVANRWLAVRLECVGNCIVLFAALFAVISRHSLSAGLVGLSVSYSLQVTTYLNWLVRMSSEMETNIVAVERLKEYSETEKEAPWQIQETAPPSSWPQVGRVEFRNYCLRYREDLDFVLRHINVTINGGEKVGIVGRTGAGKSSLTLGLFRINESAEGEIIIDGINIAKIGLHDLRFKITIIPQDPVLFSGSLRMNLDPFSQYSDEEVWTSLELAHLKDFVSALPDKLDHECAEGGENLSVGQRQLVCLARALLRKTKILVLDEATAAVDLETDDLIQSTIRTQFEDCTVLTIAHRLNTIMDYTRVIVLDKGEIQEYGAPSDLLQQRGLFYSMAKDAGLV

Take IVERMECTIN: the Activity entry is “inhibitor [+]”.

Source of the values: ChEMBL document CHEMBL2074530, “Interaction of ivermectin with multidrug resistance proteins (MRP1, 2 and 3)” (Chem Biol Interact, 2006).
